In series [1] the target is T1, SFRP-1 (Homo sapiens, UniProt Q8N474).
T1 sequence (Q8N474 32-314): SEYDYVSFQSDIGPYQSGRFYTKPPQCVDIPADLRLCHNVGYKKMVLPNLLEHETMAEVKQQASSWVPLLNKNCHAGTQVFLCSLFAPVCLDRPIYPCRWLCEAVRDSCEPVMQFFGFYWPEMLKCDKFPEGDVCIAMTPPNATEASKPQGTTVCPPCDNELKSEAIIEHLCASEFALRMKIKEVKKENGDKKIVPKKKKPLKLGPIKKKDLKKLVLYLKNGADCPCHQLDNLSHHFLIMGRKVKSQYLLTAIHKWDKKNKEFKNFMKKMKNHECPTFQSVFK
In words: Cell-based assay for in vitro measurement of SFRP-1/SARP2 antagonist activity (U2OS cells co-transfected with 16x TCF-tk-Luciferase reporter, Wnt and hSFRP-1).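 For all read-outs here: U2OS cells co-transfected with a TCF-tk luciferase reporter, a Wnt vector, hSFRP-1 or empty vector and CMV-βgal, luciferase luminescence read in cell lysates alongside βgal activity.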 The following applies: for fold induction at 10 µM: U2OS, read-out: Fold Induction with SFRP-1, U2OS cells, single dose 10 μM, luciferase reporter, fold induction over SFRP-1 control.

For series [2], the target named is T1, SFRP-1. Kind of series: Fluorescence polarization binding assay (competitive displacement of a probe compound from SFRP-1).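 Note: test compound competes with a fluorescent probe held by SFRP-1, seen as a drop in probe anisotropy after incubation in darkness, with anisotropy as function of rising compound dose.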 To be noted: fluorescence anisotropy, 45 nM SFRP-1, 20 nM probe.

Molecules are shown by their SMILES.

For `CC(C)c1ccc(S(=O)(=O)c2ccc(N3C[C@@H](C)NC[C@@H]3C)cc2)cc1S(=O)(=O)NC1CCOCC1` (relative stereo) [Example 627, 5-({4-trans-2,5-dimethylpiperazin-1-ylphenyl}sulfonyl)-2-isopropyl-N-(tetrahydro-2H-pyran-4-yl)benzenesulfonamide], on SFRP-1 [1] (Conc 15 μM, single dose, luciferase reporter, fold induction over SFRP-1 control, cells with SFRP-1), the “Fold Induction with SFRP-1” value is recorded as 3.4 fold. In addition, the “Fold Induction without SFRP-1” value on SFRP-1 [1] (Conc 15 μM, single dose, luciferase reporter, cells without SFRP-1 (specificity control)) is 1.1 fold. At SFRP-1 [2], this compound returned an IC50 of 5 µM.
Regarding `CC(C)c1ccc(S(=O)(=O)c2ccc(F)cc2)cc1S(=O)(=O)NC(CO)C(C)C` (stereo not shown) [Example 734, 5-[(4-fluorophenyl)sulfonyl]-N-[1-(hydroxymethyl)-2-methylpropyl]-2-isopropylbenzenesulfonamide], the fold induction at 10 µM at SFRP-1 [1] was 1.6.
Consider `Cc1cc(C)c(S(=O)(=O)c2ccccc2)cc1S(=O)(=O)NCC(O)c1cccnc1` (stereo not shown) [Example 737, N-(2-hydroxy-2-pyridin-3-ylethyl)-2,4-dimethyl-5-(phenylsulfonyl)benzenesulfonamide], for which the fold induction at 10 µM on SFRP-1 [1] was found to be 2.4.
Consider `CC(C)(C)c1ccc(S(=O)(=O)N2CCC(NS(=O)(=O)c3cc(S(=O)(=O)c4ccccc4)ccc3C(F)(F)F)CC2)cc1` [Example 748, N-{1-[(4-tert-butylphenyl)sulfonyl]piperidin-4-yl}-5-(phenylsulfonyl)-2-(trifluoromethyl)benzenesulfonamide], for which the fold induction at 10 µM on SFRP-1 [1] worked out at 2.8.
`Cc1ccc(S(=O)(=O)c2ccc(F)cc2)cc1S(=O)(=O)NCC(O)c1ccccn1` (stereo not shown) [Example 756, 5-[(4-fluorophenyl)sulfonyl]-N-(2-hydroxy-2-pyridin-2-ylethyl)-2-methylbenzenesulfonamide]: the fold induction at 10 µM on SFRP-1 [1] was found to be 1.3.
For the compound `CC(C)C(CO)NS(=O)(=O)c1cc(S(=O)(=O)c2ccccc2)ccc1C(F)(F)F` (stereo not shown) [Example 769, N-[1-(hydroxymethyl)-2-methylpropyl]-5-(phenylsulfonyl)-2-(trifluoromethyl)benzenesulfonamide], the concentration for half-maximal inhibition (IC50) on SFRP-1 [2] came out at 13 µM.
For `Cc1ccc(C(=O)NCCNS(=O)(=O)c2cc(S(=O)(=O)c3ccccc3)ccc2C(F)(F)F)cc1` [Example 775, 4-Methyl-N-[2-({[5-(phenylsulfonyl)-2-(trifluoromethyl)phenyl]sulfonyl}amino)ethyl]benzamide], on SFRP-1 [1], the fold induction at 10 µM was 1.3.
On to `CC(C)(C)c1ccc(C(=O)NCCNS(=O)(=O)c2cc(S(=O)(=O)c3ccccc3)ccc2C(F)(F)F)cc1` [Example 776, 4-tert-Butyl-N-[2-({[5-(phenylsulfonyl)-2-(trifluoromethyl)phenyl]sulfonyl}amino)ethyl]benzamide], for which the fold induction at 10 µM on SFRP-1 [1] came out at 0.9.
The same measure, in the same setting: under `O=C(NCCNS(=O)(=O)c1cc(S(=O)(=O)c2ccccc2)ccc1C(F)(F)F)c1ccc(F)cc1` [Example 777, 4-Fluoro-N-[2-({[5-(phenylsulfonyl)-2-(trifluoromethyl)phenyl]sulfonyl}amino)ethyl]benzamide] stands 1.1.
For the compound `O=C(NCCNS(=O)(=O)c1cc(S(=O)(=O)c2ccccc2)ccc1C(F)(F)F)c1ccc(Cl)cc1` [Example 778, 4-Chloro-N-[2-({[5-(phenylsulfonyl)-2-(trifluoromethyl)phenyl]sulfonyl}amino)ethyl]benzamide], the fold induction at 10 µM at SFRP-1 [1] is 1.2.
In the case of `O=C(NCCNS(=O)(=O)c1cc(S(=O)(=O)c2ccccc2)ccc1C(F)(F)F)c1ccc(Br)cc1` [Example 779, 4-Bromo-N-[2-({[5-(phenylsulfonyl)-2-(trifluoromethyl)phenyl]sulfonyl}amino)ethyl]benzamide], at SFRP-1 [1], the fold induction at 10 µM is 1.
Regarding `COc1ccc(C(=O)NCCNS(=O)(=O)c2cc(S(=O)(=O)c3ccccc3)ccc2C(F)(F)F)cc1` [Example 780, 4-Methoxy-N-[2-({[5-(phenylsulfonyl)-2-(trifluoromethyl)phenyl]sulfonyl}amino)ethyl]benzamide], the fold induction at 10 µM on SFRP-1 [1] is 1.7.
Regarding `O=C(NCCNS(=O)(=O)c1cc(S(=O)(=O)c2ccccc2)ccc1C(F)(F)F)c1ccc(C(F)(F)F)cc1` [Example 781, N-[2-({[5-(Phenylsulfonyl)-2-(trifluoromethyl)phenyl]sulfonyl}amino)ethyl]-4-(trifluoromethyl)benzamide], the fold induction at 10 µM at SFRP-1 [1] was 1.2.
On the same count and under the same terms, under `O=C(NCCNS(=O)(=O)c1cc(S(=O)(=O)c2ccccc2)ccc1C(F)(F)F)c1ccc(OC(F)(F)F)cc1` [Example 782, N-[2-({[5-(Phenylsulfonyl)-2-(trifluoromethyl)phenyl]sulfonyl}amino)ethyl]-4-(trifluoromethoxy)benzamide] stands 1.2; under `Cc1ccc(S(=O)(=O)c2ccc(F)cc2)cc1S(=O)(=O)NC1CCN(C(=O)OC(C)(C)C)CC1` [Example 789, tert-butyl 4-[({5-[(4-fluorophenyl)sulfonyl]-2-methylphenyl}sulfonyl)amino]piperidine-1-carboxylate], 1.5.
On to `CC(C)(C)OC(=O)N1CCCC1CCNS(=O)(=O)c1cc(S(=O)(=O)c2ccccc2)ccc1C(F)(F)F` (stereo not shown) [Example 908, tert-butyl 2-[2-({[5-(phenylsulfonyl)-2-(trifluoromethyl)phenyl]sulfonyl}amino)ethyl]pyrrolidine-1-carboxylate], for which the fold induction at 10 µM at SFRP-1 [1] is 1.1.
Regarding `Cc1cc(S(=O)(=O)c2ccccc2)cc(S(=O)(=O)NC2CCN(C(=O)OC(C)(C)C)CC2)c1C` [Example 910, tert-butyl 4-({[2,3-dimethyl-5-(phenylsulfonyl)phenyl]sulfonyl}amino)piperidine-1-carboxylate], the fold induction at 10 µM at SFRP-1 [1] came out at 1.2.
On to `Cc1cc(S(=O)(=O)c2ccccc2)cc(S(=O)(=O)NC2CCNCC2)c1C` [Example 922, 2,3-dimethyl-5-(phenylsulfonyl)-N-piperidin-4-ylbenzenesulfonamide], for which, at SFRP-1 [1], the fold induction at 10 µM came out at 1.1.
For `COC(=O)c1ccc(CNS(=O)(=O)c2cc(S(=O)(=O)c3ccccc3)ccc2C(C)C)cc1` [Example 951, methyl 4-[({[2-isopropyl-5-(phenylsulfonyl)phenyl]sulfonyl}amino)methyl]benzoate], the fold induction at 10 µM on SFRP-1 [1] is 1.8.
The same measure, in the same setting: with `O=S(=O)(NCCc1ccc(Br)cc1)c1cc(S(=O)(=O)c2ccccc2)ccc1C(F)(F)F` [Example 960, N-[2-(4-bromophenyl)ethyl]-5-(phenylsulfonyl)-2-(trifluoromethyl)benzenesulfonamide] the figure was 1.4; with `O=S(=O)(NCc1ccc(Br)cc1)c1cc(S(=O)(=O)c2ccccc2)ccc1C(F)(F)F` [Example 964, N-(4-bromobenzyl)-5-(phenylsulfonyl)-2-(trifluoromethyl)benzenesulfonamide], 1.2.
Compound `CN(CCCNS(=O)(=O)c1cc(S(=O)(=O)c2ccccc2)ccc1C(F)(F)F)C(=O)N1CCN(C(=O)OC(C)(C)C)CC1` [Example 974, tert-butyl 4-({methyl[3-({[5-(phenylsulfonyl)-2-(trifluoromethyl)phenyl]sulfonyl}amino)propyl]amino}carbonyl)piperazine-1-carboxylate] registered an IC50 on SFRP-1 [2] of 4 µM.
Consider `O=C(O)c1cccc(-c2ccc(CNS(=O)(=O)c3cc(S(=O)(=O)c4ccccc4)ccc3C(F)(F)F)cc2)c1` [Example 976, 4′-[({[5-(phenylsulfonyl)-2-(trifluoromethyl)phenyl]sulfonyl}amino)methyl]biphenyl-3-carboxylic acid], for which, on SFRP-1 [2], the IC50 was 6 µM.
In the case of `CN(CCNS(=O)(=O)c1cc(S(=O)(=O)c2ccccc2)ccc1C(F)(F)F)CC(=O)O` [Example 981, N-methyl-N-[2-({[5-(phenylsulfonyl)-2-(trifluoromethyl)phenyl]sulfonyl}amino)ethyl]glycine], the half-inhibitory concentration (IC50) on SFRP-1 [2] is 13 µM.
At SFRP-1 [2], `CN(CCNS(=O)(=O)c1cc(S(=O)(=O)c2ccccc2)ccc1C(F)(F)F)CCC(=O)O` [Example 982, N-methyl-N-[2-({[5-(phenylsulfonyl)-2-(trifluoromethyl)phenyl]sulfonyl}amino)ethyl]-β-alanine] had a half-inhibitory concentration (IC50) of 8 µM.
Consider `N#Cc1cccc(N2CCC(NS(=O)(=O)c3cc(S(=O)(=O)c4ccccc4)ccc3C(F)(F)F)CC2)c1` [Example 986, N-[1-(3-cyanophenyl)piperidin-4-yl]-5-(phenylsulfonyl)-2-(trifluoromethyl)benzenesulfonamide], for which, at SFRP-1 [2], the IC50 was 0.8 µM.
As for `CN(CCNS(=O)(=O)c1cc(S(=O)(=O)c2ccccc2)ccc1C(F)(F)F)C(=O)N(C)C1CCN(C(=O)OC(C)(C)C)CC1` [Example 989, tert-butyl 4-[methyl({methyl[2-({[5-(phenylsulfonyl)-2-(trifluoromethyl)phenyl]sulfonyl}amino)ethyl]amino}carbonyl)amino]piperidine-1-carboxylate], the IC50 at SFRP-1 [2] came to 3 µM.
Compound `O=S(=O)(NCc1cccc(Br)c1)c1cc(S(=O)(=O)c2ccccc2)ccc1C(F)(F)F` [Example 994, N-(3-bromobenzyl)-5-(phenylsulfonyl)-2-(trifluoromethyl)benzenesulfonamide] had a concentration for half-maximal inhibition (IC50) at SFRP-1 [2] of 2.3 µM.
`CN(C(=O)NCCNS(=O)(=O)c1cc(S(=O)(=O)c2ccccc2)ccc1C(F)(F)F)C1CCN(C(=O)OC(C)(C)C)CC1` [Example 1045, tert-butyl 4-[methyl({[2-({[5-(phenylsulfonyl)-2-(trifluoromethyl)phenyl]sulfonyl}amino)ethyl]amino}carbonyl)amino]piperidine-1-carboxylate]: the IC50 at SFRP-1 [2] came out at 4 µM.

Values taken from US20060276464A1, “Diarylsulfone sulfonamides and use thereof” (Wyeth, priority 2005, published 2006).
